Experimental data as given in ChEMBL document CHEMBL1201862, “PubChem BioAssay data set” (2004).
Activity calls are given as the source filed them. Rule as the data show it, for most assays here: actives have a measured EC50 and inactives only a lower limit.

Tests used:
Cytochrome P450 3A4 = Cytochrome P450 3A4 (Homo sapiens, UniProt P08684);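 also: CYP3A4 tested as one member of a cytochrome P450 panel screen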
[1] = luciferase reporter signal suppression in cells – H4 neuroglioma cells, luminescence, dose response (AID 1990); assay type: functional, cell-based
[2] = Luminescence Cell-Based Dose Response HTS to Identify Inhibitors of 5'UTR Stem-Loop Driven Prion Protein mRNA Translation in H4 Neuroglioblastoma Cells. [Related pubchem assays: 1827 (Project Summary), 1813 (Primary HTS)]; assay type: functional
[3] = alpha-synuclein stem-loop luciferase translation blockers – H4 neuroglioma cells, luminescence, confirmation (AID 1988); assay type: functional, cell-based
Cytochrome P450 2D6 = Cytochrome P450 2D6 (Homo sapiens, UniProt P10635);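 also: CYP2D6 member of a cytochrome P450 panel assay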
Chain of Cytochrome P450 2D6 (P10635 whole entry): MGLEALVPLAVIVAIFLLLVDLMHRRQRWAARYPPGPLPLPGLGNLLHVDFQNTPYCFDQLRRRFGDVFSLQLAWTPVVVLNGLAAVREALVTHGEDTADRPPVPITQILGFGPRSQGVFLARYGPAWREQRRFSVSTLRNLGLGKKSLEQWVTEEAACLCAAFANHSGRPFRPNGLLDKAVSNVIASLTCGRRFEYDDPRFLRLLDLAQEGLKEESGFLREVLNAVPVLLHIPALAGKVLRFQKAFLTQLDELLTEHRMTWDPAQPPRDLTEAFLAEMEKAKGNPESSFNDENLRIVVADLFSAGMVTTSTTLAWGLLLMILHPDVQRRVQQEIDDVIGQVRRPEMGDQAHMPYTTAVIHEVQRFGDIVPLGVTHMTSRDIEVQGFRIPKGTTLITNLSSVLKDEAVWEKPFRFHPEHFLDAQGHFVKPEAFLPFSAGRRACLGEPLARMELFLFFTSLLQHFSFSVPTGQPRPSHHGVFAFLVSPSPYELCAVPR

[4] = test system: Streptococcus sp. 'group A'; assay: Streptococcus pyogenes SK(-)GAS viability under kanamycin – luminescence, BacTiterGlo, confirmation, counter-screen for streptokinase expression inhibitor project, dose response (AID 1900); assay type: functional, organism-based
Streptococcus = assay: GAS UMAA2166 growth inhibition – luminescence, BacTiterGlo, counter-screen for streptokinase expression inhibitor project, dose response (AID 1915); assay type: functional, organism-based;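 also: potency for reduction of bacterial viability or growth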

Chain of Cytochrome P450 3A4 (P08684 whole entry): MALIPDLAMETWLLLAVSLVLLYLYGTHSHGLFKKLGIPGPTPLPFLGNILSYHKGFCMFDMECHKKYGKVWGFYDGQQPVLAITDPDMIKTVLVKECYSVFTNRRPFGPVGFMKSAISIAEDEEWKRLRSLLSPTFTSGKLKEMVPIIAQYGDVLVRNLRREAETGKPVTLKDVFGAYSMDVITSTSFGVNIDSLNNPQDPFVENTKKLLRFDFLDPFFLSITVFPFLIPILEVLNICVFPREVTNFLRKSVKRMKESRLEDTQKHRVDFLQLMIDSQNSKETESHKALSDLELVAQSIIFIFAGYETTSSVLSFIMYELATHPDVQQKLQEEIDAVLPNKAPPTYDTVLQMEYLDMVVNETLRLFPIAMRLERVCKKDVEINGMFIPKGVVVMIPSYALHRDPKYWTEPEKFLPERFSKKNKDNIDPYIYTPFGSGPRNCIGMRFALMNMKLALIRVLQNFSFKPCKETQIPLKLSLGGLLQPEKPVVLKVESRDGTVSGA

Row | Structure (SMILES) | AC50 (Cytochrome P450 3A4) | EC50 [1] | EC50 [2] | EC50 [3] | also measured
1 | SC1=NC2=C(C(c3ccc(Br)cc3)N1)N1CCC2CC1 (configuration not stated) | 1.58 µM (inconclusive) | – | – | – | –
2 | CCn1c(S)nnc1CC(=O)Nc1ccc(C)cc1 | – | > 120 µM (not active) | > 120 µM (not active) | > 120 µM (not active) | –
3 | CCOC(=O)CSc1nnc(CSc2nc3sc4c(c3c(=O)[nH]2)CCCC4)n1-c1ccccc1 | 1 µM (inconclusive) | – | – | – | –
4 | COc1cccc(N2C(=O)C(CC(=O)Nc3ccccc3)N(C3CCCCC3)C2=O)c1 (configuration not stated) | – | – | – | – | AC50 (Cytochrome P450 2D6): 17.8 µM (inconclusive)
5 | O=c1c(-c2cccs2)nc2cnc(Oc3cccc(Cl)c3)nc2n1C[C@H]1CCCO1 | 10 µM (inconclusive) | – | – | – | –
6 | CC(=O)N1CCC[C@@]2(CCN(Cc3ccc(C#N)cc3)C2)C1 | – | – | – | – | AC50 (Cytochrome P450 2D6): 12.6 µM (inconclusive)
7 | CCOc1cc(C2NC(=O)NC(c3ccccc3)=C2C(C)=O)ccc1OCC(N)=O (configuration not stated) | 20 µM (inconclusive) | – | – | – | –
8 | CCOC(=O)c1cnc2c(OC)cccc2c1N1CCN(c2ccccn2)CC1 | – | 15.6 µM (active) | 53.9 µM (active) | 11.5 µM (active) | –
9 | COCCNc1ncnc2ccc(-c3c(C)noc3C)cc12 | 31.6 µM (inconclusive) | – | – | – | –
10 | C[C@@]12C(=O)N(Cc3ccccc3)CC(=O)N1[C@H](/C=C/c1ccccc1)[C@@H]1C(=O)N(c3ccccc3)C(=O)[C@@H]12 | – | 25.8 µM (active) | > 120 µM (not active) | 14.9 µM (active) | –
11 | COc1ccc(-c2cc(C)no2)cc1S(=O)(=O)N1CCOc2ccccc21 | – | > 120 µM (not active) | 83.5 µM (active) | 31.4 µM (active) | –
12 | COc1cccc(-c2nc(NC3CCNCC3)c3ccccc3n2)c1 | 25.1 µM (inconclusive) | – | – | – | –
13 | COc1ccc([N+](=O)[O-])cc1N=C(S)NC(NC(=O)C(c1ccccc1)c1ccccc1)C(Cl)(Cl)Cl (configuration not stated) | – | – | – | – | EC50 [4]: 14.4 µM (active); EC50 (Streptococcus): > 150 µM (not active)
14 | COc1ccc(NC(=O)N2CC[C@@]3(CCCN(C(=O)c4cccn4C)C3)C2)cc1 | 2 µM (inconclusive) | – | – | – | –
15 | O=C(c1ccncc1)N1CCC2(CCN(Cc3nccs3)CC2)CC1 | – | – | – | – | AC50 (Cytochrome P450 2D6): 15.8 µM (inconclusive)
16 | CCc1ccc(CNC(=O)C2CCN(S(=O)(=O)N3CC(C)CC(C)C3)CC2)cc1 (configuration not stated) | – | > 120 µM (not active) | > 120 µM (not active) | 93.3 µM (active) | –
17 | COc1ccc(CCNS(=O)(=O)c2cccc3cccnc23)cc1OC | – | > 120 µM (not active) | > 120 µM (not active) | > 120 µM (not active) | –
18 | CCCC[C@@H]1C[C@H]1C(NC(=O)Cc1ccccc1)c1ccc(-c2ccccc2)cc1 (some centres not stated) | 12.6 µM (inconclusive) | – | – | – | –
19 | CC(=O)NCCNc1ncncc1-c1ccccc1CN(C)C | 12.6 µM (inconclusive) | – | – | – | AC50 (Cytochrome P450 2D6): 39.8 µM (inconclusive)
20 | O=C(C1CCCN(S(=O)(=O)c2ccc(Br)cc2)C1)N1CCN(Cc2ccccc2)CC1 (configuration not stated) | – | 15.5 µM (active) | > 120 µM (not active) | 22.7 µM (active) | –
21 | CCCc1nc2oc3c(NCCCN(C)C)ncnc3c2c2c1CCCC2 | – | 12.5 µM (active) | > 120 µM (not active) | 8.73 µM (active) | –
22 | CCC(C)(C)n1nnnc1C(c1ccc(C)cc1)N1CCC(C)CC1 (configuration not stated) | – | – | – | – | AC50 (Cytochrome P450 2D6): 17.8 µM (inconclusive)
23 | COC(=O)C1N2C(=O)[C@@H](NC(=O)COc3ccccc3)[C@H]2SC1(C)C (some centres not stated) | – | – | – | – | EC50 [4]: 0.535 µM (active); EC50 (Streptococcus): 0.889 µM (active)
24 | COc1ccc(O[C@H]2C=C[C@@H](c3ccccc3)O[C@H]2COC(=O)N2CCCCC2)cc1 | – | – | – | – | AC50 (Cytochrome P450 2D6): 3.98 µM (inconclusive)
25 | CCOc1ccccc1NS(=O)(=O)c1ccc(Br)s1 | – | > 120 µM (not active) | 25.2 µM (active) | > 120 µM (not active) | –
26 | CC(=O)Nc1ccc(S(=O)(=O)N(Cc2cccnc2)Cc2cc3ccc(C)cc3nc2O)cc1 | – | > 120 µM (not active) | > 120 µM (not active) | > 120 µM (not active) | –
27 | Cc1cccc(OCC(=O)NCC(=O)N/N=C/c2cc(Br)cc(Br)c2O)c1 | – | – | – | – | EC50 [4]: 0.486 µM (active); EC50 (Streptococcus): 1.66 µM (active)
28 | CNCCc1c[nH]c2ccc(O)cc12 | – | – | – | – | AC50 (Cytochrome P450 2D6): 39.8 µM (inconclusive)
